US20080241115A1, “Use Of Mesenchymal Stem Cells Genetically Modified To Express A Suicide Gene For Treating A Cancer” (Ajou University Industry-Academic Cooperation Foundation, priority 2005, published 2008)

Key:
[1] = test system: 293T cells; experiment: Suicide effect control, MTT viability assay; assay type: cell-based; settings: normal 293T cells, 1,000 μM 5-FC
Method: (§1) Normal 293T cells and 293T/CD cells transformed with pMSCV-puro/CD prepared in Step 1 were plated at a density of 2,000 cells/well in a 24-well plate containing DMEM with 10% fetal bovine serum. After 24 hours, 5-FC was added to the cells at various concentrations (0-10 mM). The media was replaced with fresh medium containing 5-FC every 2 days for 1 week. […] The viability was estimated by measuring mitochondria NADPH activity by 3-(4,5-dimethyl-thiazol-2-yl)-2,5-diphenyltetrazolium bromide (MTT) assay. The cells were incubated in 200 μl of […] MTT (Sigma, U.S.A) in PBS for 4 hours. The solution was replaced with 200 μl of absolute dimethyl sulfoxide (DMSO, Sigma). After incubated at room temperature for 15 minutes, the absorbance at 540 nm was measured with an ELISA reader (Molecular Probe, U.S.A). The data in FIG. 4B are presented as averages ±S.E. with respect to that of the cells grown in the absence of 5-FC from 3 independent experiments.

[2] = test system: 293T/CD cells; experiment: Suicide effect of CD gene, MTT viability assay and phase contrast microscopy; assay type: cell-based
Method: as §1

[3] = test system: MSC cells; experiment: Suicide effect control in MSCs, MTT assay; assay type: cell-based, human; settings: up to 1,000 μM 5-FC, 2 weeks
Method: (§2) MSC/CD or MSC cells were plated in growth medium at a density of 5,000 cells/well in a 6-well plate one day before exposure to 5-FC. The medium was replaced every 2 days with fresh growth medium containing 0-10 mM 5-FC for 2 weeks. […] The viability was estimated by measuring mitochondria NADPH activity using MTT assay as mentioned above with 293T/CD cells. The data are presented as averages ±S.E with respect to that of the untreated cells from 3 independent experiments (FIG. 6B).

[4] = test system: MSC/CD cells; experiment: Suicide effect of CD gene in MSC/CD cells, MTT assay and light microscopy; assay type: cell-based, human
Method: CD-expressing retrovirus was used to deliver the CD gene into MSCs. MSCs obtained in Step 1 of Example 1 were grown in growth medium (DMEM containing 10% FBS, 100 units/ml penicillin and 100 μg/ml streptomycin) at 37° C. and 5% CO2 until 70% confluence. CD-expressing retrovirus prepared in Example 2 was added to the culture with 1:1 dilution in the growth medium in the presence of 8 μg/ml polybrene (Sigma) for 8 hours and in the fresh growth medium for 16 hours. After the retroviral transduction was repeated 2 more times, the cells were split into 1:3 in growth medium containing 4 μg/ml puromycin (Sigma) for 14 days. The survived cells were pooled, and used in the subsequent experiments.
as §2

[5] = test system: U87 glioma cells; experiment: Cytotoxic effect of 5-FU on glioma cells, MTT assay; assay type: cell-based; settings: U87, 5-FU 1 week
Method: (§3) To verify that 5-FU produced by MSC/CD is sufficient to induce cell death in various glioma cells, C6 (KCLB No. 10107), U373 (KCLB No. 30017), U87 (KCLB No. 30014) cells were freshly obtained from KCLB (Korean cell line bank) and plated in 96-well plates in growth medium at a density of 100 cells/well, 100 cells/well, and 500 cells/well, respectively. After 24 hours, 5-FU was added to the cells at 0.01-100 μM. After 1 week, cell viability was estimated by MTT assay as described above.

[6] = test system: C6 glioma cells; experiment: as above; assay type: cell-based; settings: C6, 5-FU 1 week
Method: as §3

[7] = test system: U373 glioma cells; experiment: as above; assay type: cell-based; settings: U373, 5-FU 1 week
Method: as §3

Row | SMILES | cell death [1] | viability by phase contrast microscopy ([2]; 293T/CD cells, 1,000 μM 5-FC) | concentration from which cell death was detected ([2]; 293T/CD cells, 5-FC for 1 week, MTT) | IC50 ([2]; Homo sapiens, HEK-293T, 168 h, 293T/CD cells, 5-FC for 1 week, MTT, read-out: IC50 of cell death) | cell death [3] | IC50 ([4]; Homo sapiens, 336 h, MSC/CD cells, 5-FC for 2 weeks, MTT, read-out: IC50 of cell death) | cell death by light microscopy ([4]; MSC/CD cells, 1,000 μM 5-FC for 2 weeks) | concentration from which cell death was detected ([4]; MSC/CD cells, 5-FC for 2 weeks, MTT) | IC50 ([5]; Homo sapiens, U-87 MG, 168 h, read-out: IC50 of cell death) | concentration at which cell death reached plateau [5] | concentration at which cell death reached plateau [6] | IC50 ([6]; C6 glioma, 168 h, read-out: IC50 of cell death) | IC50 ([7]; Homo sapiens, U373 MG, 168 h, read-out: IC50 of cell death) | concentration at which cell death reached plateau [7]
1 | Nc1nc(=O)[nH]cc1F [5-FC, 5-fluorocytosine] | did not show cell death | reduced | 10 µM | 296 µM | did not show cell death | 332 µM | almost died | 100 µM | – | – | – | – | – | –
2 | O=c1[nH]cc(F)c(=O)[nH]1 [5-FU, 5-fluorouracil] | – | – | – | – | – | – | – | – | 5.65 µM | 10 µM | 10 µM | 0.93 µM | 5.34 µM | 10 µM
